Assays:
[1] = Rat pharmacokinetic evaluation test, oral administration; assay type: in vivo; conditions: male, SD rats, p.o. 5 mg/kg, plasma; for MRT inf: read-out: MRT0-∞
Protocol: SD rats were used as test animals to study the pharmacokinetic behavior of the compounds of the present invention in the rat body (plasma) after oral administration at a dose of 5 mg/kg.
3 SD rats/group, male, from Shanghai Jiesijie Experimental Animal Co., Ltd., animal production license number (SCXK (Shanghai) 2013-0006 N0.311620400001794).
• 0.5% CMC-Na (1% Tween80) was dissolved with ultrasound, and formulated into a clear solution or homogeneous suspension.
• p.o. respectively after the rats were fasted overnight; • the p.o. dose was 5 mg/kg and the administration volume was 10 mL/kg.
After oral administration of rats, 0.2 mL of blood was collected from the jugular vein at 0.25 h, 0.5 h, 1.0 h, 2.0 h, and 4.0 h, placed in an EDTA-2K test tube, centrifuged at 6000 rpm for 6 min at 4° C. to separate plasma which was stored at −80° C.; the rats can eat 4 h after administration.
• 1) 160 μL of acetonitrile was added to 40 μL of plasma sample for precipitation, mixed and centrifuged at 3500×g for 5 to 20 min. • 2) the treated supernatant solution was taken and subjected to LC/MS/MS to analyze the concentrations of the test compounds. LC/MS/MS analysis instrument: AB Sciex API 4000 Qtrap.
• Liquid phase conditions: Shimadzu LC-20AD pump • chromatographic column: AgilentZORBAX XDB-C18 (50×2.1 mm, 3.5 μm) mobile phase: liquid A was 0.1% aqueous formic acid solution, liquid B was acetonitrile • flow rate: 0.4 mL/min • Elution time: 0-4.0 min, the eluent was as follows:
The main pharmacokinetic parameters were calculated using WinNonlin 6.1.

[2] = Liver microsomal metabolism stability test, rat; assay type: in vitro ADME; conditions: for half-life at 1 μM: rat liver microsomes 0.5 mg/mL, compound 1 μM, NADPH/UDPGA; for Remaining rate: rat liver microsomes, 60 min
Protocol: (§1) The purpose of this experiment was to detect the stability of the example compounds in liver microsomes of rats, dogs and humans.
(§2) • Formulation of working solution of compounds: compound stock solution was added to phosphate buffer to a final concentration of 20 μM.
(§3) Dilution was performed with 100 mM phosphate buffer to a final concentration of 0.625 mg/mL.
(§4) NADPH (reduced nicotinamide adenine dinucleotide phosphate) and UDPGA (uridine diphosphate glucuronic acid) were weighed, 100 mM phosphate buffer was added, and the final concentration was 20 mM.
(§5) 1 mg of Alamethicin was weighed, and 200 μL of DMSO was added to formulate a 5 mg/mL solution. Then dilution was performed with phosphate buffer to a final concentration of 50 μg/mL.
(§6) Stop solution: the stop solution contains 100 ng/mL labetalol hydrochloride and 400 ng/mL tolbutamide and cold acetonitrile as internal standard.
(§7) 400 μL of formulated liver microsomes, 25 μL of compound working solution and 25 μL of Alamethicin were added in sequence to the 96-well plate, and pre-incubated at 37° C. for 10 min. Then 50 μL of formulated NADPH/UDPGA was added to start the reaction and the mixture was incubated at 37° C. The total volume of the reaction system was 500 μL. The final contents of each component are as follows:
(§8) • Instrument: Shimadzu LC-30 AD; • Chromatographic column: XBridge® C18 (50*4.6 mm, 5 μm particle size); • Mobile phase: A: 0.1% formic acid solution, B: methanol Wash gradient: 0.2-1.6 min 5% A to 95% A, 3.0-3.1 min 95% A to 5% A Run time: 4.0 min.
(§9) • Instrument: API5500 liquid chromatography mass spectrometer, AB Sciex; • Ion source: electrospray ionization source (ESI); • Drying gas: N2, temperature 500° C.; • Electrospray voltage: 5000 V; • Detection mode: positive ion detection; • Scanning mode: reaction monitoring (MRM) mode.

[3] = Liver microsomal metabolism stability test, human; assay type: in vitro ADME; conditions: for half-life at 1 μM: human liver microsomes 0.5 mg/mL, compound 1 μM, NADPH/UDPGA; for Remaining rate: human liver microsomes, 60 min
Protocol: as §1, §2, §3, §4, §5, §6, §7, §8, §9

[4] = biological target: T1, CYP450 enzyme subtype 1A2 (Homo sapiens, UniProt P05177); experiment: CYP enzyme single point inhibition test, 1A2; assay type: in vitro ADME; conditions: human liver microsomes, single point method
T1 construct: Human liver microsome incubation system was used; from tissue; host or cells: human liver microsomes
T1 sequence (P05177 1-516): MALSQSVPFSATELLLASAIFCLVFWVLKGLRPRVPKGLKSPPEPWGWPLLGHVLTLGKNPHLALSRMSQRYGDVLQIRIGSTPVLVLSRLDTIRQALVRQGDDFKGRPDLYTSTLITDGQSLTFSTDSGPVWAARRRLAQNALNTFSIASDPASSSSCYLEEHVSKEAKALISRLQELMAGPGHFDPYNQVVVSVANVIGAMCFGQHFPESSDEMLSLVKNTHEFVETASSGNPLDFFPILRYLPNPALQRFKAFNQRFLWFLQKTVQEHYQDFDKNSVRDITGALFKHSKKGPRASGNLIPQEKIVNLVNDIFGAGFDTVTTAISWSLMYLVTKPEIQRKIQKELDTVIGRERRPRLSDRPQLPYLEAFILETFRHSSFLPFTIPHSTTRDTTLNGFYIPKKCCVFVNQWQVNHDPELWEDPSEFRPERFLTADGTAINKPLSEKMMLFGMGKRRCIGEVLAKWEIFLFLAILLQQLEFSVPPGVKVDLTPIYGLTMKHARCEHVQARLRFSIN
Protocol: (§10) Human liver microsome incubation system was used, and the single point method was used to quickly predict the inhibition on CYP450 enzyme subtypes (1A2, 2C19, 2D6, 3A4-M, and 3A4-T) by compounds.
(§11) For 2.5 mM NADPH, 4.165 mg of NADPH (reduced nicotinamide adenine dinucleotide phosphate) was weighed and 100 mM phosphate buffer was added to 2 mL. For 0.25 mg/mL microsomes, 50 μL of 20 mg/mL microsomes was added to 4 mL of 100 mM phosphate buffer and mixed evenly.
(§12) The test example compound was weighed, diluted to 10 mM with DMSO, and then diluted to 100 μM with 100 mM phosphate buffer.
(§13) • 1. 40 μL of liver microsomes, 10 μL of substrate, and 10 μL of test compound were added in a 96-well plate and the mixture was pre-incubated for 3 min. • 2. 40 μL of NADPH was added. • 3. At 20 min, 300 μL of acetonitrile stop solution containing internal standard was added. • 4. The mixture was centrifuged and the sample was loaded.

[5] = biological target: T2, CYP450 enzyme subtype 2C19 (Homo sapiens, UniProt P33261); experiment: CYP enzyme single point inhibition test, 2C19; assay type: in vitro ADME; conditions: human liver microsomes, single point method
T2 construct: Human liver microsome incubation system was used; from tissue; host or cells: human liver microsomes
Protocol: as §10, §11, §12, §13

[6] = biological target: T3, CYP450 enzyme subtype 2D6 (Homo sapiens, UniProt P10635); experiment: CYP enzyme single point inhibition test, 2D6; assay type: in vitro ADME; conditions: human liver microsomes, single point method
T3 construct: Human liver microsome incubation system was used; from tissue; host or cells: human liver microsomes
Protocol: as §10, §11, §12, §13

[7] = biological target: T4, CYP450 enzyme subtype 3A4-M (Homo sapiens, UniProt P08684); experiment: CYP enzyme single point inhibition test, 3A4-M; assay type: in vitro ADME; conditions: human liver microsomes, single point method
T4 construct: Human liver microsome incubation system was used; from tissue; host or cells: human liver microsomes
Protocol: as §10, §11, §12, §13

T3 sequence (P10635 whole entry): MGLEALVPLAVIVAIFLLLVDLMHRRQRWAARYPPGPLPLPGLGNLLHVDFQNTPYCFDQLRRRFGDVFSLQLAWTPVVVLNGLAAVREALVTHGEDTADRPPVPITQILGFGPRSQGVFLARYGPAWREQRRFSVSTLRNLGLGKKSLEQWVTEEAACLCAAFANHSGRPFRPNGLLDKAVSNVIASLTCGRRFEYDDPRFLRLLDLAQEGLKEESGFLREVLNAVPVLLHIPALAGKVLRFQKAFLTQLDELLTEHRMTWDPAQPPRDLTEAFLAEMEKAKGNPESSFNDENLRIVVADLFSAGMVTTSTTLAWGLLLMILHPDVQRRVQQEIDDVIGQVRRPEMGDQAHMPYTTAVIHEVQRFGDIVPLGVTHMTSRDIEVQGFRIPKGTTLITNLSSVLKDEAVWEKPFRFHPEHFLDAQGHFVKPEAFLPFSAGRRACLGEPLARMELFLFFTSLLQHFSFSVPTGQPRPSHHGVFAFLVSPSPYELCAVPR
T4 sequence (P08684 whole entry): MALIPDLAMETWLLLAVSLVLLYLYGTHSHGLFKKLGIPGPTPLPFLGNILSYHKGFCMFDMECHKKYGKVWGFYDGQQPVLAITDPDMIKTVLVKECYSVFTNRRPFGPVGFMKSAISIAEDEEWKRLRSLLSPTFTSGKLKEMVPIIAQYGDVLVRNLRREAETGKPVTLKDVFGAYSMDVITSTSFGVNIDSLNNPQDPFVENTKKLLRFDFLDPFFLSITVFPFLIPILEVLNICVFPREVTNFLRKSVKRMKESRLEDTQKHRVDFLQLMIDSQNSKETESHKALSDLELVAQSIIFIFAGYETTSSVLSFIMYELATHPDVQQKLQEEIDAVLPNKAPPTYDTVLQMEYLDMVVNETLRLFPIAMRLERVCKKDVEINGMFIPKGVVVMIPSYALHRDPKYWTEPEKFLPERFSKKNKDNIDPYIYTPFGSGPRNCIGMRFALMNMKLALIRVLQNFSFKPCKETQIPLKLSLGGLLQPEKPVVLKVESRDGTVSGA
T2 sequence (P33261 whole entry): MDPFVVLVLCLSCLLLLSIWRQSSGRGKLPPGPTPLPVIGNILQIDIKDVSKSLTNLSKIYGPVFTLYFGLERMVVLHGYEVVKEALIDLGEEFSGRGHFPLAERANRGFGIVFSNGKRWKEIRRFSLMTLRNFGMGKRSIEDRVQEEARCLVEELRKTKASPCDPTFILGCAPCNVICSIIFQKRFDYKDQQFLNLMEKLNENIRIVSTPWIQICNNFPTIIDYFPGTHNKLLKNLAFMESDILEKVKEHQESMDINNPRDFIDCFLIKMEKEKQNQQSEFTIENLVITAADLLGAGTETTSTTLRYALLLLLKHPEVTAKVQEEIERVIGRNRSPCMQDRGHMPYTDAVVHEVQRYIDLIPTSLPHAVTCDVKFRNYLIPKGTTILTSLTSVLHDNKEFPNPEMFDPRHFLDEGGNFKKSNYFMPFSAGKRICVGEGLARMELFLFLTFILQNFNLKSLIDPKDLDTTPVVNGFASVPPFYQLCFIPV

Row | SMILES | AUC(0-inf) [1] [ng·h/mL] | Cmax [1] [ng/mL] | Tmax [1] [min] | MRT inf [1] [min] | half-life at 1 μM [2] [min] | Remaining rate [2] [%] | half-life at 1 μM [3] [min] | Remaining rate [3] [%] | IC50 [4] [µM] | IC50 [5] [µM] | IC50 [6] [µM] | IC50 [7] [µM]
1 | CCCCC1=NC2(CCCC2)C(=O)N1Cc1ccc(-c2ccccc2S(=O)(=O)Nc2noc(C)c2Br)c(COCC)c1 [Example 46, 2-[4-[(2-butyl-4-oxo-1,3-diazaspiro[4.4]non-1-en-3-yl)methyl]-2-(ethoxymethyl)phenyl]-N-(4-bromo-5-methyl-isoxazol-3-yl)benzsulfamide] | 13800 | 2300 | 30 | 396 | 24.3 | 17.3 | 28.9 | 23.8 | > 100 | > 100 | > 100 | 16.7
2 | [2H]C([2H])(OCC)c1cc(CN2C(=O)C3(CCCC3)N=C2CCCC)ccc1-c1ccccc1S(=O)(=O)Nc1noc(C)c1Cl [Example 49, 4′-((2-butyl-4-oxo-1,3-diazospiro[4.4]non-1-en-3-yl)methyl)-N-(4-chloro-5-methylisoxazol-3-yl)-2′-(ethoxydeuteriummethyl)-[1,1′-biphenyl]-2-sulfonamide] | – | – | – | – | 24 | 17.1 | 26.2 | 30.7 | – | – | – | –
3 | CCCCC1=NC2(CC3CC3C2)C(=O)N1Cc1ccc(-c2ccccc2S(=O)(=O)Nc2noc(C)c2C)c(COCC)c1 (centres unmarked) [Example 87, 4′-((2′-butyl-5′-oxaspiro[bicyclo[3.1.0]hexane-3,4′-imidazole]-1′(5′H)-yl)methyl)-N-(4,5-dimethylisoxazol-3-yl)-2′-(ethoxymethyl)-[1,1′-biphenyl]-2-sulfonamide] | 9760 | 2630 | 30 | 228 | – | – | – | – | – | – | – | –

From patent US20240368123A1, “AROMATIC RING-CONTAINING BIOLOGICAL ANTAGONIST, AND PREPARATION METHOD THEREFOR AND USE THEREOF” (SHANGHAI HANSOH BIOMEDICAL CO., LTD., priority 2021, published 2024)
